Activity calls are given as the source filed them. No cut-off for these calls is given here. Bridge positions count the residues as written; N and C are the ends. Peptide text beside a SMILES is read from it.
Tests used:
[1] = biological target: T1, Mas-related G-protein coupled receptor member X2 (Homo sapiens) (UniProt Q96LB1); experiment: Agonist activity at MRGPRX2 (unknown origin) expressed in HEK293 cells assessed as induction of G(o) dissociation by measuring luminescent decay at 32 uM by NanoBiT-G-protein dissociation assay; format: functional, cell-based; details: filed as agonist
T1 sequence (whole entry): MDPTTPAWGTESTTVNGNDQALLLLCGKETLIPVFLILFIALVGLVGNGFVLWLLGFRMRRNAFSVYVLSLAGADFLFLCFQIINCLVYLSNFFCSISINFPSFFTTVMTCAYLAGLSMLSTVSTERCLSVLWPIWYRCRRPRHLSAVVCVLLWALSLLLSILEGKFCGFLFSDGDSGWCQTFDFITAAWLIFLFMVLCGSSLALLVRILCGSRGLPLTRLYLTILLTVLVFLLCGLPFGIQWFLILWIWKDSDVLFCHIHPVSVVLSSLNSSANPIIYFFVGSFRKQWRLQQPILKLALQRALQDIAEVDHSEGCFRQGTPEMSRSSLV

[2] = biological target: T2, Mas-related G-protein coupled receptor member B2 (Mus musculus) (UniProt Q3KNA1); experiment: Agonist activity at mouse Mrgprb2 expressed in HEK293 cells assessed as induction of G(o) dissociation by measuring luminescent decay at 32 uM by NanoBiT-G-protein dissociation assay; format: cell-based; details: filed as agonist
T2 sequence (whole entry): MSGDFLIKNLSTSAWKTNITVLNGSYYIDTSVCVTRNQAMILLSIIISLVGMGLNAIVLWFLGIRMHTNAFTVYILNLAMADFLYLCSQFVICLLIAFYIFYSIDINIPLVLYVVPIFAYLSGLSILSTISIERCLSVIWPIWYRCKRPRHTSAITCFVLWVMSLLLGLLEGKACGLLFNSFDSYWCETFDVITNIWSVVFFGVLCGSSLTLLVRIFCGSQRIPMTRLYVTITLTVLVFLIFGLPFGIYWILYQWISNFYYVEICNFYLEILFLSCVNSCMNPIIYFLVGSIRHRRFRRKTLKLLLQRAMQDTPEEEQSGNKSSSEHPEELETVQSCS

Mus musculus [3] = organism: Mus musculus; experiment: Increase in number of nociceptive behaviors in mouse at 3 to 30 ug, it; format: functional; details: dose 3-30 µg, DDE = dose-dependent effect
Mus musculus [4] = organism: Mus musculus; experiment: Increase in number of nociceptive behaviors in mouse at 30 ug, it; format: functional; details: dose 30.0 µg
Mus musculus [5] = organism: Mus musculus; experiment: Increase in number of scratching behaviors in mouse at 3 to 300 ug, id; format: functional; details: dose 3-300 µg, DDE = dose-dependent effect
[6] = biological target: T1, Mas-related G-protein coupled receptor member X2 (Homo sapiens); experiment: Agonist activity at MRGPRX2 (unknown origin) expressed in HEK293 cells assessed as induction of G(o) dissociation by measuring luminescent decay at 10 uM by NanoBiT-G-protein dissociation assay; format: functional, cell-based; details: filed as agonist
[7] = biological target: T2, Mas-related G-protein coupled receptor member B2 (Mus musculus); experiment: Agonist activity at mouse Mrgprb2 expressed in HEK293 cells assessed as induction of G(o) dissociation by measuring luminescent decay at 10 uM by NanoBiT-G-protein dissociation assay; format: cell-based; details: filed as agonist
[8] = biological target: T3, Mas-related G-protein coupled receptor member X2 (Homo sapiens, UniProt Q96LB1); experiment: Agonistic activity at MRGPRX2 (unknown origin)
T3 sequence (Q96LB1 whole entry): T1 sequence (whole entry)

SMILES	Activity [1]	Activity [2]	Activity (Mus musculus [3])	Activity (Mus musculus [4])	Activity (Mus musculus [5])	Activity [6]	Activity [7]	EC50 [8] [nM]
CN1CC[C@]23Cc4nc5ccccc5cc4C[C@@]2(O)[C@H]1Cc1ccc(O)cc13	Active	Active	Dde	Active	Dde			
C[C@@H](O)[C@@H]1NC(=O)[C@H](CCCCN)NC(=O)[C@H](Cc2c[nH]c3ccccc23)NC(=O)[C@H](Cc2ccccc2)NC(=O)[C@H](Cc2ccccc2)NC(=O)[C@H](CC(N)=O)NC(=O)[C@H](CCCCN)NC(=O)[C@@H](NC(=O)[C@@H]2CCCN2)CSSC[C@@H](C(=O)N[C@@H](CCCCN)C(=O)O)NC(=O)[C@H](CO)NC(=O)[C@H](CO)NC(=O)[C@H](Cc2ccccc2)NC1=O (H-PCKNFFWKTFSSCK-OH; disulfide 2-13)						Active	Active	
CN1CC[C@]2(c3cccc(O)c3)Cc3nc4ccccc4cc3C[C@@H]2C1	Active	Active						290

Reference: ChEMBL document CHEMBL5131412, “Synthesis of unnatural morphinan compounds to induce itch-like behaviors in mice: Towards the development of MRGPRX2 selective ligands” (Bioorg Med Chem Lett, 2022)
